Measurements taken from PubChem BioAssay (NCI).
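48-hour exposure; five concentrations; linearly interpolated endpoints. TGI: total growth inhibition.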

Tests used:
Assay in all cases: NCI-60 cell line screen, 48 h
786-0 renal = tested on: 786-0 renal
A498 renal = tested on: A498 renal
A549 NSCLC = tested on: A549 NSCLC
ACHN renal = tested on: ACHN renal
BT-549 breast = tested on: BT-549 breast
CAKI-1 renal = tested on: CAKI-1 renal
CCRF-CEM leukemia = tested on: CCRF-CEM leukemia
COLO 205 colon = tested on: COLO 205 colon
DU-145 prostate = tested on: DU-145 prostate
EKVX NSCLC = tested on: EKVX NSCLC
HCC-2998 colon = tested on: HCC-2998 colon
HCT-116 colon = tested on: HCT-116 colon
HCT-15 colon = tested on: HCT-15 colon
HOP-62 NSCLC = tested on: HOP-62 NSCLC
HOP-92 NSCLC = tested on: HOP-92 NSCLC
HS 578T breast = tested on: HS 578T breast
HT29 colon = tested on: HT29 colon
IGROV1 ovarian = tested on: IGROV1 ovarian
K-562 leukemia = tested on: K-562 leukemia
KM12 colon = tested on: KM12 colon
LOX IMVI melanoma = tested on: LOX IMVI melanoma
M14 melanoma = tested on: M14 melanoma
MDA-MB-231 breast = tested on: MDA-MB-231 breast
MDA-MB-435 = tested on: MDA-MB-435
MDA-N = tested on: MDA-N
MOLT-4 leukemia = tested on: MOLT-4 leukemia
NCI-H226 lung = tested on: NCI-H226 lung
NCI-H23 lung = tested on: NCI-H23 lung
NCI-H460 lung = tested on: NCI-H460 lung
NCI/ADR-RES ovarian = tested on: NCI/ADR-RES ovarian
OVCAR-3 ovarian = tested on: OVCAR-3 ovarian
OVCAR-4 ovarian = tested on: OVCAR-4 ovarian
OVCAR-5 ovarian = tested on: OVCAR-5 ovarian
OVCAR-8 ovarian = tested on: OVCAR-8 ovarian
PC-3 prostate = tested on: PC-3 prostate
RXF 393 renal = tested on: RXF 393 renal
SF-268 CNS = tested on: SF-268 CNS
SF-295 CNS = tested on: SF-295 CNS
SF-539 CNS = tested on: SF-539 CNS
SK-MEL-2 melanoma = tested on: SK-MEL-2 melanoma
SK-MEL-28 melanoma = tested on: SK-MEL-28 melanoma
SK-MEL-5 melanoma = tested on: SK-MEL-5 melanoma
SK-OV-3 ovarian = tested on: SK-OV-3 ovarian
SN12C renal = tested on: SN12C renal
SNB-19 CNS = tested on: SNB-19 CNS
SNB-75 CNS = tested on: SNB-75 CNS
SR leukemia = tested on: SR leukemia
SW-620 colon = tested on: SW-620 colon
T-47D breast = tested on: T-47D breast
TK-10 renal = tested on: TK-10 renal
U251 CNS = tested on: U251 CNS
UACC-257 melanoma = tested on: UACC-257 melanoma
UACC-62 melanoma = tested on: UACC-62 melanoma
UO-31 renal = tested on: UO-31 renal
HL-60(TB) leukemia = tested on: HL-60(TB) leukemia
MALME-3M melanoma = tested on: MALME-3M melanoma
MCF7 breast = tested on: MCF7 breast
RPMI-8226 leukemia = tested on: RPMI-8226 leukemia
NCI-H522 lung = tested on: NCI-H522 lung

SMILES: CCCC(=O)N(C(=O)CCC)C1=C(Cl)C(=O)c2ccccc2C1=O
- TGI (786-0 renal): 30.8 µM
- TGI (A498 renal): 37.6 µM
- TGI (A549 NSCLC): > 52.8 µM
- TGI (ACHN renal): 2.71 µM
- TGI (BT-549 breast): 10.3 µM
- TGI (CAKI-1 renal): 5.79 µM
- TGI (CCRF-CEM leukemia): > 26.7 µM
- TGI (COLO 205 colon): > 23.3 µM
- TGI (DU-145 prostate): 45.1 µM
- TGI (EKVX NSCLC): > 42.5 µM
- TGI (HCC-2998 colon): 16.4 µM
- TGI (HCT-116 colon): > 33.1 µM
- TGI (HCT-15 colon): 14.2 µM
- TGI (HOP-62 NSCLC): 24.1 µM
- TGI (HOP-92 NSCLC): 45 µM
- TGI (HS 578T breast): 79.7 µM
- TGI (HT29 colon): 31.2 µM
- TGI (IGROV1 ovarian): 20.9 µM
- TGI (K-562 leukemia): 5.01 µM
- TGI (KM12 colon): 15.5 µM
- TGI (LOX IMVI melanoma): 17.8 µM
- TGI (M14 melanoma): 25.8 µM
- TGI (MDA-MB-231 breast): > 67.5 µM
- TGI (MDA-MB-435): 21.4 µM
- TGI (MDA-N): 28.2 µM
- TGI (MOLT-4 leukemia): 10.7 µM
- TGI (NCI-H226 lung): 23.8 µM
- TGI (NCI-H23 lung): 15.8 µM
- TGI (NCI-H460 lung): 29.3 µM
- TGI (NCI/ADR-RES ovarian): 61.3 µM
- TGI (OVCAR-3 ovarian): 11.8 µM
- TGI (OVCAR-4 ovarian): 82.8 µM
- TGI (OVCAR-5 ovarian): 26 µM
- TGI (OVCAR-8 ovarian): 25.3 µM
- TGI (PC-3 prostate): 40 µM
- TGI (RXF 393 renal): 7.1 µM
- TGI (SF-268 CNS): > 45.2 µM
- TGI (SF-295 CNS): 33.3 µM
- TGI (SF-539 CNS): 15.4 µM
- TGI (SK-MEL-2 melanoma): 24 µM
- TGI (SK-MEL-28 melanoma): 13.6 µM
- TGI (SK-MEL-5 melanoma): > 23.9 µM
- TGI (SK-OV-3 ovarian): 34.4 µM
- TGI (SN12C renal): 52.5 µM
- TGI (SNB-19 CNS): 24.4 µM
- TGI (SNB-75 CNS): 15.3 µM
- TGI (SR leukemia): > 54.1 µM
- TGI (SW-620 colon): 14.5 µM
- TGI (T-47D breast): > 100 µM
- TGI (TK-10 renal): 14.8 µM
- TGI (U251 CNS): 23.5 µM
- TGI (UACC-257 melanoma): 11.6 µM
- TGI (UACC-62 melanoma): 11.1 µM
- TGI (UO-31 renal): 4.75 µM

SMILES: COc1ccc(-c2cn3c(nc4ccccc43)c(/C=C/c3cccs3)n2)cc1
- TGI (786-0 renal): > 100 µM
- TGI (A498 renal): > 100 µM
- TGI (A549 NSCLC): > 100 µM
- TGI (ACHN renal): > 100 µM
- TGI (BT-549 breast): > 100 µM
- TGI (COLO 205 colon): > 100 µM
- TGI (DU-145 prostate): > 100 µM
- TGI (HCC-2998 colon): > 100 µM
- TGI (HCT-116 colon): > 100 µM
- TGI (HCT-15 colon): > 100 µM
- TGI (HL-60(TB) leukemia): 89.7 µM
- TGI (HOP-62 NSCLC): > 100 µM
- TGI (HOP-92 NSCLC): > 100 µM
- TGI (HS 578T breast): > 100 µM
- TGI (HT29 colon): > 100 µM
- TGI (K-562 leukemia): > 100 µM
- TGI (KM12 colon): > 100 µM
- TGI (LOX IMVI melanoma): > 100 µM
- TGI (M14 melanoma): > 100 µM
- TGI (MALME-3M melanoma): > 100 µM
- TGI (MCF7 breast): > 100 µM
- TGI (MDA-MB-231 breast): > 100 µM
- TGI (MDA-MB-435): 36.5 µM
- TGI (MDA-N): 25.1 µM
- TGI (NCI-H226 lung): > 100 µM
- TGI (NCI-H23 lung): > 100 µM
- TGI (NCI-H460 lung): > 100 µM
- TGI (NCI/ADR-RES ovarian): 51.7 µM
- TGI (OVCAR-3 ovarian): > 100 µM
- TGI (OVCAR-4 ovarian): > 100 µM
- TGI (OVCAR-5 ovarian): > 100 µM
- TGI (RPMI-8226 leukemia): 44.1 µM
- TGI (RXF 393 renal): > 100 µM
- TGI (SF-268 CNS): > 100 µM
- TGI (SF-539 CNS): > 100 µM
- TGI (SK-MEL-2 melanoma): 45.6 µM
- TGI (SK-MEL-28 melanoma): > 100 µM
- TGI (SK-MEL-5 melanoma): > 100 µM
- TGI (SK-OV-3 ovarian): > 100 µM
- TGI (SN12C renal): > 100 µM
- TGI (SNB-19 CNS): > 100 µM
- TGI (SNB-75 CNS): > 100 µM
- TGI (SR leukemia): 15.4 µM
- TGI (SW-620 colon): > 100 µM
- TGI (T-47D breast): > 100 µM
- TGI (TK-10 renal): > 100 µM
- TGI (U251 CNS): > 100 µM
- TGI (UACC-257 melanoma): > 100 µM
- TGI (UACC-62 melanoma): > 100 µM
- TGI (UO-31 renal): > 100 µM

SMILES: Cc1ccc(C)c2c1C/C(=C\c1ccccc1C(=O)O)C2=O
- TGI (786-0 renal): > 100 µM
- TGI (A498 renal): > 100 µM
- TGI (A549 NSCLC): > 100 µM
- TGI (ACHN renal): > 100 µM
- TGI (BT-549 breast): > 100 µM
- TGI (CAKI-1 renal): > 100 µM
- TGI (CCRF-CEM leukemia): > 100 µM
- TGI (COLO 205 colon): > 100 µM
- TGI (DU-145 prostate): > 100 µM
- TGI (EKVX NSCLC): > 100 µM
- TGI (HCC-2998 colon): > 100 µM
- TGI (HCT-116 colon): > 100 µM
- TGI (HCT-15 colon): > 100 µM
- TGI (HL-60(TB) leukemia): > 100 µM
- TGI (HOP-62 NSCLC): > 100 µM
- TGI (HOP-92 NSCLC): > 100 µM
- TGI (HS 578T breast): > 100 µM
- TGI (HT29 colon): > 100 µM
- TGI (IGROV1 ovarian): > 100 µM
- TGI (K-562 leukemia): > 100 µM
- TGI (KM12 colon): > 100 µM
- TGI (LOX IMVI melanoma): > 100 µM
- TGI (M14 melanoma): > 100 µM
- TGI (MALME-3M melanoma): > 100 µM
- TGI (MCF7 breast): > 100 µM
- TGI (MDA-MB-435): > 100 µM
- TGI (MDA-N): > 100 µM
- TGI (MOLT-4 leukemia): > 100 µM
- TGI (NCI-H226 lung): 80.5 µM
- TGI (NCI-H23 lung): > 100 µM
- TGI (NCI-H460 lung): > 100 µM
- TGI (NCI-H522 lung): > 100 µM
- TGI (NCI/ADR-RES ovarian): > 100 µM
- TGI (OVCAR-3 ovarian): > 100 µM
- TGI (OVCAR-4 ovarian): > 100 µM
- TGI (OVCAR-5 ovarian): > 100 µM
- TGI (OVCAR-8 ovarian): > 100 µM
- TGI (PC-3 prostate): > 100 µM
- TGI (RPMI-8226 leukemia): > 100 µM
- TGI (RXF 393 renal): > 100 µM
- TGI (SF-268 CNS): > 100 µM
- TGI (SF-295 CNS): > 100 µM
- TGI (SF-539 CNS): 97.7 µM
- TGI (SK-MEL-28 melanoma): > 100 µM
- TGI (SK-MEL-5 melanoma): > 100 µM
- TGI (SN12C renal): > 100 µM
- TGI (SNB-19 CNS): > 100 µM
- TGI (SNB-75 CNS): > 100 µM
- TGI (SR leukemia): > 100 µM
- TGI (SW-620 colon): > 100 µM
- TGI (T-47D breast): > 100 µM
- TGI (TK-10 renal): > 100 µM
- TGI (U251 CNS): > 100 µM
- TGI (UACC-257 melanoma): > 100 µM
- TGI (UACC-62 melanoma): > 100 µM
- TGI (UO-31 renal): > 100 µM
